Measurements published in patent US9845330B2, “6-nitro-2,3-dihydroimidazo[2,1-b]oxazoles and a process for the preparation thereof” (priority 2013, dated 2017).
≈ marks a conversion by molar mass, not a printed value.

Experiments:
[1] = tested on: M. tuberculosis MDR (resistant to isoniazid and rifampicin); experiment: microbe, parasite or virus in culture; type: cell-based; conditions: Mycobacterium tuberculosis, 504 h, read-out: MIC M. tb MDR
[2] = tested on: M. tuberculosis XDR (resistant to isoniazid, rifampicin, amikacin and moxifloxacin); experiment: microbe, parasite or virus in culture; type: cell-based; conditions: Mycobacterium tuberculosis, 504 h, read-out: MIC M. tb XDR

Row | Compound | MIC [1] [mg/L] | MIC [2] [mg/L]
1 | CCc1ccc(OCc2cc(-c3ccc(OC[C@@]4(C)Cn5cc([N+](=O)[O-])nc5O4)cc3)no2)cc1 [IC19, (R)-2-{4-[5-(4-ethylphenoxymethyl)isoxazol-3-yl]phenoxymethyl}-2,3-dihydro-2-methyl-6-nitroimidazo[2,1-b]oxazole] | 2 (≈ 4.2 µM) | 2 (≈ 4.2 µM)
2 | CCC(C)c1ccc(OCc2cc(-c3ccc(OC[C@@]4(C)Cn5cc([N+](=O)[O-])nc5O4)cc3)no2)cc1 (stereo partly drawn) [IC20, (R)-2-{4-[5-(4-sec-butylphenoxymethyl)isoxazol-3-yl]phenoxymethyl}-2,3-dihydro-2-methyl-6-nitroimidazo[2,1-b]oxazole] | 2 (≈ 3.96 µM) | 2 (≈ 3.96 µM)
3 | C[C@]1(COc2ccc(-c3cc(COc4ccccc4)on3)cc2)Cn2cc([N+](=O)[O-])nc2O1 [IC21, (R)-2-{4-[5-(phenoxymethyl)isoxazol-3-yl]phenoxymethyl}-2,3-dihydro-2-methyl-6-nitroimidazo[2,1-b]oxazole] | 4 (≈ 8.92 µM) | 4 (≈ 8.92 µM)
4 | C[C@]1(COc2ccc(-c3cc(COc4ccc(F)cc4F)on3)cc2)Cn2cc([N+](=O)[O-])nc2O1 [IC22, (R)-2-{4-[5-(2,4-difluorophenoxymethyl)isoxazol-3-yl]phenoxymethyl}-2,3-dihydro-2-methyl-6-nitroimidazo[2,1-b]oxazole] | 0.12 (≈ 0.248 µM) | 0.12 (≈ 0.248 µM)
5 | C[C@]1(COc2ccc(NC(=O)Nc3ccc(F)cc3)cc2)Cn2cc([N+](=O)[O-])nc2O1 [IIA1, (R)-1-(4-fluorophenyl)-3-{4-(2-methyl-6-nitro-2,3-dihydroimidazo[2,1-b]oxazol-2-yl)methoxyphenyl}urea] | 2 (≈ 4.68 µM) | 2 (≈ 4.68 µM)
6 | CCc1ccc(NC(=O)Nc2ccc(OC[C@@]3(C)Cn4cc([N+](=O)[O-])nc4O3)cc2)cc1 [IIA2, (R)-1-(4-ethylphenyl)-3-{4-(2-methyl-6-nitro-2,3-dihydroimidazo[2,1-b]oxazol-2-yl)methoxyphenyl}urea] | 0.5 (≈ 1.14 µM) | 0.5 (≈ 1.14 µM)
7 | C[C@]1(COc2ccc(NC(=O)Nc3ccc(C(F)(F)F)cc3)cc2)Cn2cc([N+](=O)[O-])nc2O1 [IIA3, (R)-1-(4-trifluoromethylphenyl)-3-{4-(2-methyl-6-nitro-2,3-dihydroimidazo[2,1-b]oxazol-2-yl)methoxyphenyl}urea] | 0.12 (≈ 0.251 µM) | 0.12 (≈ 0.251 µM)
8 | Cc1ccc(NC(=O)Nc2ccc(OC[C@@]3(C)Cn4cc([N+](=O)[O-])nc4O3)cc2)cc1 [IIA4, (R)-1-(4-methylphenyl)-3-{4-(2-methyl-6-nitro-2,3-dihydroimidazo[2,1-b]oxazol-2-yl)methoxyphenyl}urea] | 0.06 (≈ 0.142 µM) | 0.06 (≈ 0.142 µM)
9 | COc1ccc(NC(=O)Nc2ccc(OC[C@@]3(C)Cn4cc([N+](=O)[O-])nc4O3)cc2)cc1 [IIA5, (R)-1-(4-methoxyphenyl)-3-{4-(2-methyl-6-nitro-2,3-dihydroimidazo[2,1-b]oxazol-2-yl)methoxyphenyl}urea] | 1 (≈ 2.28 µM) | 1 (≈ 2.28 µM)
10 | C[C@]1(COc2ccc(NC(=O)Nc3ccc(OC(F)(F)F)cc3)cc2)Cn2cc([N+](=O)[O-])nc2O1 [IIA6, (R)-1-(4-trifluoromethoxyphenyl)-3-{4-(2-methyl-6-nitro-2,3-dihydroimidazo[2,1-b]oxazol-2-yl)methoxyphenyl}urea] | 0.5 (≈ 1.01 µM) | 0.5 (≈ 1.01 µM)
11 | COc1ccc(NC(=S)Nc2ccc(OC[C@@]3(C)Cn4cc([N+](=O)[O-])nc4O3)cc2)cc1 [IIA7, (R)-1-(4-methoxyphenyl)-3-{4-(2-methyl-6-nitro-2,3-dihydroimidazo[2,1-b]oxazol-2-yl)methoxyphenyl}thiourea] | 2 (≈ 4.39 µM) | 2 (≈ 4.39 µM)
12 | C[C@]1(COc2ccc(NC(=S)Nc3ccc(OC(F)(F)F)cc3)cc2)Cn2cc([N+](=O)[O-])nc2O1 [IIA8, (R)-1-(4-trifluoromethoxyphenyl)-3-{4-(2-methyl-6-nitro-2,3-dihydroimidazo[2,1-b]oxazol-2-yl)methoxyphenyl}thiourea] | 2 (≈ 3.93 µM) | 2 (≈ 3.93 µM)
13 | C[C@]1(COc2ccc(NC(=S)Nc3ccc(F)cc3)cc2)Cn2cc([N+](=O)[O-])nc2O1 [IIA9, (R)-1-(4-fluorophenyl)-3-{4-(2-methyl-6-nitro-2,3-dihydroimidazo[2,1-b]oxazol-2-yl)methoxyphenyl}thiourea] | 4 (≈ 9.02 µM) | 4 (≈ 9.02 µM)
14 | C[C@]1(COc2ccc(NC(=S)Nc3ccc(C(F)(F)F)cc3)cc2)Cn2cc([N+](=O)[O-])nc2O1 [IIA10, (R)-1-(4-trifluoromethylphenyl)-3-{4-(2-methyl-6-nitro-2,3-dihydroimidazo[2,1-b]oxazol-2-yl)methoxyphenyl}thiourea] | 4 (≈ 8.11 µM) | 4 (≈ 8.11 µM)
15 | Cc1ccc(NS(=O)(=O)c2ccc(OC[C@@]3(C)Cn4cc([N+](=O)[O-])nc4O3)cc2)cc1 [IIB1, (R)-4-{(2-methyl-6-nitro-2,3-dihydroimidazo[2,1-b]oxazol-2-yl)methoxy}-N-(p-tolyl)benzenesulfonamide] | 2 (≈ 4.5 µM) | 2 (≈ 4.5 µM)
16 | C[C@]1(COc2ccc(S(=O)(=O)Nc3ccc(OC(F)(F)F)cc3)cc2)Cn2cc([N+](=O)[O-])nc2O1 [IIB2, (R)-4-{(2-methyl-6-nitro-2,3-dihydroimidazo[2,1-b]oxazol-2-yl)methoxy}-N-(4 trifluoromethoxyphenyl)benzenesulfonamide] | 2 (≈ 3.89 µM) | 2 (≈ 3.89 µM)
17 | C[C@]1(COc2ccc(S(=O)(=O)Nc3ccc(C(F)(F)F)cc3)cc2)Cn2cc([N+](=O)[O-])nc2O1 [IIB3, (R)-4-{(2-methyl-6-nitro-2,3-dihydroimidazo[2,1-b]oxazol-2-yl)methoxy}-N-(4 trifluoromethylphenyl)benzenesulfonamide] | 2 (≈ 4.01 µM) | 2 (≈ 4.01 µM)
18 | CN(c1ccccc1)S(=O)(=O)c1ccc(OC[C@@]2(C)Cn3cc([N+](=O)[O-])nc3O2)cc1 [IIB4, (R)—N-methyl-4-{(2-methyl-6-nitro-2,3-dihydroimidazo[2,1-b]oxazol-2-yl)methoxy}-N-phenylbenzenesulfonamide] | 4 (≈ 9 µM) | 4 (≈ 9 µM)
19 | Cc1ccc(N(C)S(=O)(=O)c2ccc(OC[C@@]3(C)Cn4cc([N+](=O)[O-])nc4O3)cc2)cc1 [IIB5, (R)—N-methyl-4-{(2-methyl-6-nitro-2,3-dihydroimidazo[2,1-b]oxazol-2-yl)methoxy}-N-(p-tolyl)benzenesulfonamide] | 4 (≈ 8.72 µM) | 4 (≈ 8.72 µM)
20 | CN(c1ccc(C(F)(F)F)cc1)S(=O)(=O)c1ccc(OC[C@@]2(C)Cn3cc([N+](=O)[O-])nc3O2)cc1 [IIB6, (R)—N-methyl-4-{(2-methyl-6-nitro-2,3-dihydroimidazo[2,1-b]oxazol-2-yl)methoxy}-N-(p-trifluoromethylphenyl)benzenesulfonamide] | 1 (≈ 1.95 µM) | 1 (≈ 1.95 µM)
21 | C[C@]1(COc2ccc(S(=O)(=O)N3CCN(c4ccccc4)CC3)cc2)Cn2cc([N+](=O)[O-])nc2O1 [IIC1, (R)-2-{4-(4-phenylpiperazin-1-yl)sulfonylphenoxymethyl}-2,3-dihydro-2-methyl-6-nitroimidazo[2,1-b]oxazole] | 1 (≈ 2 µM) | 1 (≈ 2 µM)
22 | C[C@]1(COc2ccc(S(=O)(=O)N3CCN(c4ccc(F)cc4)CC3)cc2)Cn2cc([N+](=O)[O-])nc2O1 [IIC2, (R)-2-{4-[4-(4-fluorophenyl)piperazin-1-yl]sulfonylphenoxymethyl}-2,3-dihydro-2-methyl-6-nitroimidazo[2,1-b]oxazole] | 2 (≈ 3.86 µM) | 2 (≈ 3.86 µM)
23 | C[C@]1(COc2ccc(S(=O)(=O)N3CCN(c4cccc(Cl)c4)CC3)cc2)Cn2cc([N+](=O)[O-])nc2O1 [IIC3, (R)-2-{4-[4-(3-chlorophenyl)piperazin-1-yl]sulfonylphenoxymethyl}-2,3-dihydro-2-methyl-6-nitroimidazo[2,1-b]oxazole] | 8 (≈ 15 µM) | 8 (≈ 15 µM)
24 | C[C@]1(COc2ccc(S(=O)(=O)N3CCN(c4ccc(OC(F)(F)F)cc4)CC3)cc2)Cn2cc([N+](=O)[O-])nc2O1 [IIC4, (R)-2-{4-[4-(4-trifluoromethoxyphenyl)piperazin-1-yl]sulfonylphenoxymethyl}-2,3-dihydro-2-methyl-6-nitroimidazo[2,1-b]oxazole] | 2 (≈ 3.43 µM) | 2 (≈ 3.43 µM)
25 | CCOC(=O)N1CCN(S(=O)(=O)c2ccc(OC[C@@]3(C)Cn4cc([N+](=O)[O-])nc4O3)cc2)CC1 [IIC5, (R)-ethyl-{4-[4-(2-methyl-6-nitro-2,3-dihydroimidazo[2,1-b]oxazol-2yl)methoxyphenyl]sulfonyl}piperazine-1-carboxylate] | 2 (≈ 4.04 µM) | 2 (≈ 4.04 µM)
26 | C[C@]1(COc2ccc(S(=O)(=O)N3CCN(C(=O)c4ccccc4)CC3)cc2)Cn2cc([N+](=O)[O-])nc2O1 [IIC6, (R)-{4-[4-(2-methyl-6-nitro-2,3-dihydroimidazo[2,1-b]oxazol-2yl)methoxyphenyl]sulfonyl}piperazine-1-yl(phenyl)methanone] | 2 (≈ 3.79 µM) | 2 (≈ 3.79 µM)
27 | C[C@]1(COc2ccc(S(=O)(=O)N3CCCCC3)cc2)Cn2cc([N+](=O)[O-])nc2O1 [IIC7, (R)-2-{4-(piperidin-1-ylsulfonyl)phenoxymethyl}-2,3-dihydro-2-methyl-6-nitroimidazo[2,1-b]oxazole] | 1 (≈ 2.37 µM) | 1 (≈ 2.37 µM)
28 | C[C@]1(COc2ccc(S(=O)(=O)N3CCC(c4ccccc4)CC3)cc2)Cn2cc([N+](=O)[O-])nc2O1 [IIC8, (R)-2-{4-[(4-phenylpiperidin-1-yl)sulfonyl]phenoxymethyl}-2,3-dihydro-2-methyl-6-nitroimidazo[2,1-b]oxazole] | 0.5 (≈ 1 µM) | 0.5 (≈ 1 µM)
29 | C[C@]1(COc2ccc(S(=O)(=O)N3CCCC3)cc2)Cn2cc([N+](=O)[O-])nc2O1 [IIC9, (R)-2-{4-(pyrrolidin-1-ylsulfonyl)phenoxymethyl}-2,3-dihydro-2-methyl-6-nitroimidazo[2,1-b]oxazole] | 1 (≈ 2.45 µM) | 1 (≈ 2.45 µM)
30 | C[C@]1(COc2ccc(S(=O)(=O)N3CCOCC3)cc2)Cn2cc([N+](=O)[O-])nc2O1 [IIC10, (R)-2-{4-(morpholinsulfonyl)phenoxymethyl}-2,3-dihydro-2-methyl-6-nitroimidazo[2,1-b]oxazole] | 0.5 (≈ 1.18 µM) | 0.5 (≈ 1.18 µM)
